Test results published in patent US9982005B2, “Macrolides and methods of their preparation and use” (President and Fellows of Harvard College, priority 2013, dated 2018).
Converted amounts (≈) assume the structure as drawn. Like-named read-outs stand apart in the source and are kept apart here.

Tests used:
Assay type in all cases: cell-based
E. faecalis strains = assay: MIC against E. faecalis strains (Table M8); conditions: Enterococcus faecalis, E. faecalis 29212
K. pneumoniae strains = assay: MIC against K. pneumoniae strains (Table M8); conditions: Klebsiella pneumoniae, K. pneumoniae 10031
S. pneumoniae strains = assay: MIC against S. pneumoniae strains (Tables M7, M8); conditions: Streptococcus pneumoniae
Text: CLSI standard procedures for broth dilution MIC determination were used. […] These genotypes can be constitutive or inducible.

H. influenzae strains = assay: MIC against H. influenzae strains (Table M8); conditions: Haemophilus influenzae
Text: (§1) We have collected MIC data for a total of 50 novel macrolides that this platform has produced against over 21 unique strains of B. subtilis, E. coli, S. aureus, S. pneumoniae, and H. influenzae, including several multidrug-resistant strains, with a special focus on macrolide resistant mechanisms (vide supra). Azithromycin was included as a control macrolide. CLSI standard procedures for broth dilution MIC determination were used. […] These genotypes can be constitutive or inducible. The finding that C4-epi (unnatural) isomers of the “azaketolide” macrolide class have enhanced activities relative to C4 natural isomers is very exciting.

E. coli strains = assay: MIC against E. coli strains (Table M7); conditions: Escherichia coli, ATCC25922, E. coli ATCC 25922
Text: as §1

S. aureus strains = assay: MIC against S. aureus strains (Table M7); conditions: Staphylococcus aureus
Text: as §1

A. baumannii strains = assay: MIC against A. baumannii strains (Table M8); conditions: Acinetobacter baumannii, BAA747, A. baumannii BAA747-1
[1] = S. pneumoniae 160, read-out: MIC S. pneumonae (160)
[2] = S. pneumoniae 1509, read-out: MIC S. pneumoniae (1509)
[3] = S. pneumoniae 1533, read-out: MIC S. pneumoniae (1533)
[4] = S. pneumoniae 1537, read-out: MIC S. pneumoniae (1537)
[5] = S. pneumoniae 49619, read-out: MIC S. pneumoniae (49619)
[6] = H. influenzae 49247, read-out: MIC H. influenzae (49247)
[7] = H. influenzae 49766, read-out: MIC H. influenzae (49766)
[8] = ATCC29213, S. aureus ATCC 29213, read-out: MIC S. aureus (ATCC 29213)
[9] = S. aureus 183, read-out: MIC S. aureus (183)
[10] = S. aureus 506, read-out: MIC S. aureus (506)
[11] = S. aureus 1708, read-out: MIC S. aureus (1708)
[12] = USA300, S. aureus USA300, read-out: MIC S. aureus (USA300)

Row | Compound | MIC (E. faecalis strains) [µg/mL] | MIC (K. pneumoniae strains) [µg/mL] | MIC (S. pneumoniae strains; [1]) [µg/mL] | MIC (S. pneumoniae strains; [2]) [µg/mL] | MIC (S. pneumoniae strains; [3]) [µg/mL] | MIC (S. pneumoniae strains; [4]) [µg/mL] | MIC (S. pneumoniae strains; [5]) [µg/mL] | MIC (H. influenzae strains; [6]) [µg/mL] | MIC (H. influenzae strains; [7]) [µg/mL] | MIC (E. coli strains) [µg/mL] | MIC (S. aureus strains; [8]) [µg/mL] | MIC (S. aureus strains; [9]) [µg/mL] | MIC (S. aureus strains; [10]) [µg/mL] | MIC (S. aureus strains; [11]) [µg/mL] | MIC (S. aureus strains; [12]) [µg/mL] | MIC (A. baumannii strains) [µg/mL]
1 | CC[C@H]1OC(=O)[C@H](CC(=O)OC(C)(C)C)C(=O)[C@H](C)[C@@H](O[C@@H]2OC(C)CC(N(C)C)C2O)[C@](C)(OC)C[C@@H](C)CN[C@H](C)[C@H]2N(CCCCn3cc(-c4cccc(N)c4)nn3)C(=O)O[C@]12C (some centres unmarked) [FSM-56178] | > 32 | > 32 | 8 (≈ 8.62 µM) | > 32 | > 32 | > 32 | > 32 | > 32 | > 32 | > 32 | > 32 | > 32 | > 32 | > 32 | > 32 | > 32
2 | CC[C@H]1OC(=O)[C@H](C)C(=O)[C@H](C)[C@@H](O[C@@H]2OC(C)CC(N(C)C)C2O)[C@](C)(OC)C[C@@H](C)CN[C@H](Cc2cccc(Br)c2)[C@H]2N(CCCCn3cc(-c4cccc(N)c4)nn3)C(=O)O[C@]12C (some centres unmarked) [FSM-60415] | 2 (≈ 2.03 µM) | > 32 | 0.5 (≈ 0.509 µM) | 4 (≈ 4.07 µM) | 32 (≈ 32.6 µM) | 32 (≈ 32.6 µM) | 0.5 (≈ 0.509 µM) | 8 (≈ 8.14 µM) | 32 (≈ 32.6 µM) | > 32 | 2 (≈ 2.03 µM) | > 32 | > 32 | 2 (≈ 2.03 µM) | 2 (≈ 2.03 µM) | > 32
3 | CC[C@H]1OC(=O)[C@H](C)C(=O)[C@H](C)[C@@H](O[C@@H]2OC(C)CC(N(C)C)C2O)[C@](CCO)(OC)C[C@@H](C)CN[C@H](C)[C@H]2N(CCCCn3cc(-c4cccc(N)c4)nn3)C(=O)O[C@]12C (some centres unmarked) [FSM-21422] | 16 (≈ 18.6 µM) | 8 (≈ 9.32 µM) | 4 (≈ 4.66 µM) | > 32 | > 32 | > 32 | 1 (≈ 1.17 µM) | 8 (≈ 9.32 µM) | 16 (≈ 18.6 µM) | 32 (≈ 37.3 µM) | > 32 | > 32 | > 32 | > 32 | > 32 | > 32

Stronger by MIC (E. faecalis strains), values ahead:

Row | MIC (E. faecalis strains) [µg/mL] | MIC (K. pneumoniae strains) [µg/mL] | MIC (S. pneumoniae strains; [1]) [µg/mL] | MIC (S. pneumoniae strains; [2]) [µg/mL] | MIC (S. pneumoniae strains; [3]) [µg/mL] | MIC (S. pneumoniae strains; [4]) [µg/mL] | MIC (S. pneumoniae strains; [5]) [µg/mL] | MIC (H. influenzae strains; [6]) [µg/mL] | MIC (H. influenzae strains; [7]) [µg/mL] | MIC (E. coli strains) [µg/mL] | MIC (S. aureus strains; [8]) [µg/mL] | MIC (S. aureus strains; [9]) [µg/mL] | MIC (S. aureus strains; [10]) [µg/mL] | MIC (S. aureus strains; [11]) [µg/mL] | MIC (S. aureus strains; [12]) [µg/mL] | MIC (A. baumannii strains) [µg/mL] | Compound
4 | 0.5 (≈ 0.579 µM) | 16 (≈ 18.5 µM) | 0.25 (≈ 0.289 µM) | 1 (≈ 1.16 µM) | > 32 | > 32 | 0.25 (≈ 0.289 µM) | 2 (≈ 2.31 µM) | 8 (≈ 9.26 µM) | 32 (≈ 37 µM) | 2 (≈ 2.31 µM) | > 32 | > 32 | 2 (≈ 2.31 µM) | 4 (≈ 4.63 µM) | > 32 | CC[C@H]1OC(=O)C(C)(F)C(=O)[C@H](C)[C@@H](O[C@@H]2OC(C)CC(N(C)C)C2O)[C@](C)(OC)CC(C)(F)CN[C@H](C)[C@H]2N(CCCCn3cc(-c4cccc(N)c4)nn3)C(=O)O[C@]12C (some centres unmarked) [FSM-30704]
5 | 0.25 (≈ 0.308 µM) | 2 (≈ 2.46 µM) | 0.125 (≈ 0.154 µM) | 4 (≈ 4.93 µM) | > 32 | > 32 | ≤ 0.0625 | 0.5 (≈ 0.616 µM) | 2 (≈ 2.46 µM) | 4 (≈ 4.93 µM) | 1 (≈ 1.23 µM) | > 32 | > 32 | 4 (≈ 4.93 µM) | 2 (≈ 2.46 µM) | 16 (≈ 19.7 µM) | CC[C@H]1OC(=O)[C@H](C)C(=O)[C@H](C)[C@@H](O[C@@H]2OC(C)CC(N(C)C)C2O)[C@](C)(OC)C[C@@H](C)CN[C@H](C)[C@H]2N(C/C=C/Cn3cc(-c4ccccn4)nn3)C(=O)O[C@]12C (some centres unmarked) [FSM-70153]
